Results as given in patent publication US9890185B2, “Urea derivatives useful as kinase inhibitors” (Respivert Limited, priority 2013, dated 2018).

Assays:
[1] = target: c-Src (Homo sapiens (Human), UniProt P12931); assay: c-Src enzyme inhibition (FRET, Z-LYTE); type: biochemical
Summary of the method: (§1)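 Fluorescence-ratio kinase assay: 2 hr compound–enzyme preincubation at RT, 1 hr reaction with ATP added as 800 μM (c-Src) or 60 μM (Syk) solution. IC50 derived from percent inhibition curves.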

[2] = target: Syk (Homo sapiens (Human), UniProt P43405); assay: Syk enzyme inhibition (FRET, Z-LYTE); type: biochemical
Summary of the method: as §1

[3] = target: p38 MAPKα isoform (MAPK14) (Homo sapiens (Human), UniProt Q16539); assay: p38 MAPKα enzyme inhibition (FRET, Z-LYTE, Method 2); type: biochemical
Chain of p38 MAPKα isoform (MAPK14) (Q16539 whole entry, canonical isoform): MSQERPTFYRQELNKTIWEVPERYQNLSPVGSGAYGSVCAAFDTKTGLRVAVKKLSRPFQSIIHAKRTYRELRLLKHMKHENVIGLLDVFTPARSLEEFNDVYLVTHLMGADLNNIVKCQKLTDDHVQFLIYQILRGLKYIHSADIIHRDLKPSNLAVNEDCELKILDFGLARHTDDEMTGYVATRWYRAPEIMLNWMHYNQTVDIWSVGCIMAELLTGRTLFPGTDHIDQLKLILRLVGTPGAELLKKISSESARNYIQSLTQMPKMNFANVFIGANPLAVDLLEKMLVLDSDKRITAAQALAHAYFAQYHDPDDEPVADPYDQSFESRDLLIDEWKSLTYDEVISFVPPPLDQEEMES
Summary of the method: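 Z-LYTE FRET: p38 MAPKα (80 ng/mL for Method 1, 200 ng/mL for Method 2, pre-dilution) preincubated 2 hr RT with compound (4–0.004 μg/mL solutions), activity read via MAPKAP-K2 phosphorylation after 1 hr RT and 1 hr protease development. Coumarin/fluorescein ratio gives phosphorylation; % inhibition versus uninhibited control, IC50 from concentration-response curve.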

[4] = system: PBMCs; assay: IL-2 release in CD3/CD28 stimulated PBMC cells (assay c); type: cell-based; settings: Homo sapiens, read-out: IC50 Values for Inhibition of Cytokine Release, PBMCs IL-2
Summary of the method: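 Healthy-donor PBMCs, isolated by density gradient, were plated in wells pre-coated with anti-CD3 (0.3 μg/mL) and anti-CD28 (3 μg/mL) antibodies, then exposed to compound for 3 days under normal culture conditions. IL-2 and IFN gamma in supernatants were measured by sandwich ELISA; IC50 taken from the dose-response curve.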

[5] = system: PBMCs; assay: LPS-induced IL-8 release in PBMC cells (assay b); type: cell-based, human; settings: Homo sapiens, PBMC; LPS-stimulated PBMCs; read-out: IC50 Values for Inhibition of Cytokine Release, PBMCs IL-8
Summary of the method: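 Human PBMCs from healthy donors, isolated by density gradient, were pretreated with compound for 2 h and then stimulated with 1 ng/mL LPS (E. coli 0111:B4) for 24 h at 37° C, 5% CO2. Supernatant IL-8 and TNFα were measured by sandwich ELISA, and IC50 was taken from the dose-response curve.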

[6] = target: GSK 3α (Homo sapiens (Human), UniProt P49840); assay: GSK 3α enzyme inhibition (FRET, Z-LYTE, Method 2); type: biochemical; settings: read-out: IC50 Values for Enzyme Inhibition, GSK3α
Chain of GSK 3α (P49840 whole entry): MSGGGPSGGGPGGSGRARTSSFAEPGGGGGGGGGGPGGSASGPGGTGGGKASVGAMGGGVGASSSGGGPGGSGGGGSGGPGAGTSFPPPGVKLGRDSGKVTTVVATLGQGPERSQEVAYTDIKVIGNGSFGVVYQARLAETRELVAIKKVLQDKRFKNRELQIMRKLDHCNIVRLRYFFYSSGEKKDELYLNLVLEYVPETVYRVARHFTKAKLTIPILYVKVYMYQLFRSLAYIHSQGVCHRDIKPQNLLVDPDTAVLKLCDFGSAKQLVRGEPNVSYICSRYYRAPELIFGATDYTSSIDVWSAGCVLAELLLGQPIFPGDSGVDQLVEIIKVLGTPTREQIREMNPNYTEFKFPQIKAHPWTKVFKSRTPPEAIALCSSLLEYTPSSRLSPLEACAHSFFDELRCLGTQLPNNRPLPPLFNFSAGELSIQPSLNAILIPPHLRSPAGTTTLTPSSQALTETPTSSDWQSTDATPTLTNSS
Summary of the method: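 Recombinant human GSK3α was preincubated with compound (stocks 4, 0.4, 0.04 or 0.004 μg/mL) at RT, 2 hr for Method 1 and 105 min for Method 2. FRET peptide (8 μM stock) and ATP (40 μM stock) were added for 1 hr, then protease development for 1 hr. IC50 was taken from concentration–response curves.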

[7] = system: PBMCs; assay: Cell mitosis assay in PBMCs (assay g); type: cell-based; settings: Homo sapiens, PBMC, test compound 5 μg/mL
Summary of the method: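 Human PBMCs from healthy donors, stimulated with 2% PHA for 48 hr, then exposed to test compounds for 20 hr, with demecolcine (0.1 μg/mL) added 2 hr before harvest. Cells fixed/permeabilised, stained for phospho-histone 3 and propidium iodide, and read by flow cytometry gated on lymphocytes. % mitosis inhibition vs 0.5% DMSO vehicle.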

Chain of c-Src (P12931 whole entry, looked up): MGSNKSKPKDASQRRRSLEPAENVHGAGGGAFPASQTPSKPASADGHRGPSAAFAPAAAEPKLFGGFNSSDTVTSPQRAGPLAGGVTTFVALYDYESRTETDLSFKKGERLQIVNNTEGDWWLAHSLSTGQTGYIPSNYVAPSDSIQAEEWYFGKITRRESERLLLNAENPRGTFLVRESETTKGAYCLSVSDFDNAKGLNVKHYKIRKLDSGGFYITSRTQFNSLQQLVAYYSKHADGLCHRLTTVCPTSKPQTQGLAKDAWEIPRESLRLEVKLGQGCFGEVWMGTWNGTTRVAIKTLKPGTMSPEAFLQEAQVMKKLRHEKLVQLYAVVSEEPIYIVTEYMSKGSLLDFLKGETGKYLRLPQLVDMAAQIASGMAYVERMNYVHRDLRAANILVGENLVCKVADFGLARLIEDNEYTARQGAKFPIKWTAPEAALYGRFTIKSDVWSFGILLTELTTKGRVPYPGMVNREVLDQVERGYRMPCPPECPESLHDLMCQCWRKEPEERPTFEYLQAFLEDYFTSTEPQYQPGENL

| SMILES | IC50 [1] | IC50 [2] | IC50 [3] | IC50 [6] | IC50 [4] | IC50 [5] | inhibition at 5 µg/mL [7] |
| --- | --- | --- | --- | --- | --- | --- | --- |
| COCCOCCOCCOc1cc(Nc2cc(Oc3ccc(NC(=O)Nc4cc(C(C)(C)C)cc(CS(C)(=O)=O)c4OC)c4ccccc34)ccn2)cc(OC)c1 [15(a), 1-(5-(tert-butyl)-2-methoxy-3-((methylsulfonyl)methyl)phenyl)-3-(4-((2-((3-methoxy-5-(2-(2-(2-methoxyethoxy)ethoxy)ethoxy)phenyl)amino)pyridin-4-yl)oxy)naphthalen-1-yl)urea] | 28 nM | 134 nM | 177 nM | > 12200 nM | 43.2 nM | 3.6 nM | 56.8% |
| COc1c(NC(=O)Nc2ccc(Oc3ccnc(Nc4cccnc4)c3)c3ccccc23)cc(C(C)(C)C)cc1P(C)(C)=O [15(ad), 1-(5-(tert-butyl)-3-(dimethylphosphoryl)-2-methoxyphenyl)-3-(4-((2-(pyridin-3-ylamino)pyridin-4-yl)oxy)naphthalen-1-yl)urea] | 129 nM | 1000 nM | 181 nM | 1600 nM | 1110 nM | 3.7 nM | 31% |
| COc1cc(F)cc(Nc2cc(Oc3ccc(NC(=O)Nc4cc(C(C)(C)C)cc(P(C)(C)=O)c4OC)c4ccccc34)ccn2)c1 [15(an), 1-(5-(tert-butyl)-3-(dimethylphosphoryl)-2-methoxyphenyl)-3-(4-((2-((3-fluoro-5-methoxyphenyl)amino)pyridin-4-yl)oxy)naphthalen-1-yl)urea] | 116 nM | 712 nM | 344 nM | > 15200 nM | 251 nM | 2.7 nM | 50.3% |
| COc1c(NC(=O)Nc2ccc(Oc3ccnc(Nc4cnn(C)n4)n3)c3ccccc23)cc(C(C)(C)C)cc1P(C)(C)=O [15(x), 1-(5-(tert-butyl)-3-(dimethylphosphoryl)-2-methoxyphenyl)-3-(4-((2-((2-methyl-2H-1,2,3-triazol-4-yl)amino)pyrimidin-4-yl)oxy)naphthalen-1-yl)urea] | 356 nM | > 1630 nM | 219 nM | 4660 nM | 624 nM | 6.1 nM | 18.4% |
| COc1c(CC(N)=O)cc(C(C)(C)C)cc1NC(=O)Nc1ccc(Oc2ccnc(NCc3ccccn3)c2)c2ccccc12 [38(d), 2-(5-(tert-Butyl)-2-methoxy-3-(3-(4-((2-((pyridin-2-ylmethyl)amino)pyridin-4-yl)oxy)naphthalen-1-yl)ureido)phenyl)acetamide] | > 1570 nM | > 1650 nM | 13 nM | 2240 nM | 1650 nM | 4.5 nM | 28.1% |
| COc1c(CC(N)=O)cc(C(C)(C)C)cc1NC(=O)Nc1ccc(Oc2ccnc(Nc3cc(C)cc(C)c3)c2)c2ccccc12 [38(f), 2-(5-(tert-Butyl)-3-(3-(4-((2-((3,5-dimethylphenyl)amino)pyridin-4-yl)oxy)naphthalen-1-yl)ureido)-2-methoxyphenyl)acetamide] | 69 nM | 837 nM | 226 nM | 14800 nM | 75.8 nM | 5.5 nM | 37.8% |
| CNC(=O)Cc1cc(C(C)(C)C)cc(NC(=O)Nc2ccc(Oc3ccnc(Nc4cccc(OC)c4)c3)c3ccccc23)c1OC [38(h), 2-(5-(tert-Butyl)-2-methoxy-3-(3-(4-((2-((3-methoxyphenyl)amino)pyridin-4-yl)oxy)naphthalen-1-yl)ureido)phenyl)-N-methylacetamide] | 181 nM | 1080 nM | 123 nM | > 14600 nM | 160 nM | 2.7 nM | 30.3% |

The next lines start with results.

| IC50 [1] | IC50 [2] | IC50 [3] | IC50 [6] | SMILES | IC50 [4] | IC50 [5] | inhibition at 5 µg/mL [7] |
| --- | --- | --- | --- | --- | --- | --- | --- |
| 201 nM | 656 nM | 193 nM | > 9900 nM | COc1c(NC(=O)Nc2ccc(Oc3ccnc(Nc4ccccc4)c3)c3ccccc23)cc(C(C)(C)C)cc1[S+](C)[O-] (racemic) [Example 12, 1-(5-(tert-Butyl)-2-methoxy-3-(methylsulfinyl)phenyl)-3-(4-((2-(phenylamino)pyridin-4-yl)oxy)naphthalen-1-yl)urea] | 67 nM | 3.6 nM | 23.2% |
| 166 nM | > 1610 nM | 152 nM | 2620 nM | COc1cc(Nc2cc(Oc3ccc(NC(=O)Nc4cc(C(C)(C)C)cc(CC(N)=O)c4OC)c4ccccc34)ccn2)ccn1 [38(k), 2-(5-(tert-Butyl)-2-methoxy-3-(3-(4-((2-((2-methoxypyridin-4-yl)amino)pyridin-4-yl)oxy)naphthalen-1-yl)ureido)phenyl)acetamide] | 281 nM | 2.1 nM | 70.5% |
| 33 nM | 364 nM | 48 nM | 3380 nM | COc1cc(CO)cc(Nc2cc(Oc3ccc(NC(=O)Nc4cc(C(C)(C)C)cc(CC(N)=O)c4OC)c4ccccc34)ccn2)c1 [38(m), 2-(5-(tert-Butyl)-3-(3-(4-((2-((3-(hydroxymethyl)-5-methoxyphenyl)amino)pyridin-4-yl)oxy)naphthalen-1-yl)ureido)-2-methoxyphenyl)acetamide] | 93.8 nM | 2 nM | 77.4% |
| 95 nM | > 1610 nM | 43 nM | 1200 nM | COc1cncc(Nc2cc(Oc3ccc(NC(=O)Nc4cc(C(C)(C)C)cc(CC(N)=O)c4OC)c4ccccc34)ccn2)c1 [38(n), 2-(5-(tert-butyl)-2-methoxy-3-(3-(4-((2-((5-methoxypyridin-3-yl)amino)pyridin-4-yl)oxy)naphthalen-1-yl)ureido)phenyl)acetamide] | 348 nM | 1.4 nM | 66.1% |
| 47 nM | 381 nM | 9 nM | 1050 nM | COc1c(CC(N)=O)cc(C(C)(C)C)cc1NC(=O)Nc1ccc(Oc2ccnc(Nc3ccn(C)n3)c2)c2ccccc12 [38(o), 2-(5-(tert-Butyl)-2-methoxy-3-(3-(4-((2-((1-methyl-1H-pyrazol-3-yl)amino)pyridin-4-yl)oxy)naphthalen-1-yl)ureido)phenyl)acetamide] | 60.8 nM | 1.3 nM | 83.2% |
| 383 nM | > 1620 nM | 6 nM | 1500 nM | COc1c(CNC(C)=O)cc(C(C)(C)C)cc1NC(=O)Nc1ccc(Oc2ccnc(NCc3ccccn3)c2)c2ccccc12 [38(q), N-(5-(tert-Butyl)-2-methoxy-3-(3-(4-((2-((pyridin-2-ylmethyl)amino)pyridin-4-yl)oxy)naphthalen-1-yl)ureido)benzyl)acetamide] | 443 nM | 1.4 nM | 82.1% |
| 16 nM | 58 nM | 211 nM | 1200 nM | COCCOCCOCCOc1cc(Nc2nccc(Oc3ccc(NC(=O)Nc4cc(C(C)(C)C)cc(OCP(C)(C)=O)c4OC)c4ccccc34)n2)cc(OC)c1 [Example 6, 1-(5-(tert-Butyl)-3-((dimethylphosphoryl)methoxy)-2-methoxyphenyl)-3-(4-((2-((3-methoxy-5-(2-(2-(2-methoxyethoxy)ethoxy)ethoxy)phenyl)amino)pyrimidin-4-yl)oxy)naphthalen-1-yl)urea] | – | 1.9 nM | 52.4% |
